This is an account of results in paper PMC11148080, “Ru(II)-based complexes containing 2-thiouracil derivatives suppress liver cancer stem cells by targeting NF-κB and Akt/mTOR signaling” (Cell Death Discovery, 2024).

The structures appear in SMILES notation. pIC50: −log10 of the molar value. Values joined by “and” are separate entries in the source; they are usually repeats but may differ in a detail not shown here. Equal entries are not always repeated.

One test concerns B16-F10. The experiment in a line: Alamar Blue cytotoxicity. To be noted: B16-F10, 72 h. The class given is cell-based, mouse. As to the method: (§1) The Alamar Blue assay was used to measure cell viability, as previously described. Adherent cells were seeded in 96-well plates at a density of 7 × 10^3 cells per well, and suspended cells were seeded at 3 × 10^4 cells per well. Drugs were added to each well after overnight incubation for adherent cells or immediately after seeding for suspension cells, and incubation continued for an additional 72 h. The positive control included doxorubicin (Laboratorio IMA S.A.I.C., Buenos Aires, Argentina). Four hours (for cell lines) or 24 h (for primary cultures) before the end of incubation, 20 μL of resazurin (30 μM) (Sigma‒Aldrich Co. St. Louis, MO, USA) was added to each well. The absorbance at 570 and 600 nm was measured using a SpectraMax 190 microplate reader (Molecular Devices, Sunnyvale, CA, USA).

A further test deals with 4T1. Put plainly: Alamar Blue cytotoxicity. To be noted: 4T1, 72 h. It counts as cell-based, mouse. As to the method:
as §1
Background: Alamar Blue is a resazurin reagent that responds to reducing activity.

The next test concerns HL-60. The experiment in a line: Alamar Blue cytotoxicity. The class given is cell-based, human. Conditions: HL-60, 72 h. As to the method:
as §1, with “The positive control included doxorubicin (Laboratorio IMA S.A.I.C., Buenos Aires, Argentina).” left out

A further test relates to PBMC. The experiment in a line: Alamar Blue cytotoxicity, noncancerous cells. The class given is cell-based, human. Conditions: 72 h. As to the method: as §1, with “USA). […]” for “USA).”
PBMC heath peripheral blood mononuclear human primary cell […]
Then, the PBMCs were resuspended in RPMI 1640 or DMEM-F12 supplemented with 20% FBS and 1% antibiotics. The cells were plated at 5 × 10^5 cells/well. Concanavalin A (10 μg/mL, Sigma‒Aldrich) was used as a mitogen to trigger cell division in T lymphocytes and was added at the beginning of the culture. The Research Ethics Committee of the Oswaldo Cruz Foundation

In a further test the test system is HepG2 cells. Put plainly: Annexin V-FITC/PI apoptosis detection. It counts as cell-based, human. To be noted: for apoptosis (annexin V-FITC+ cells): HepG2, 72 h, control 4.8%. As to the method:
For apoptosis detection, cell viability was quantified using Annexin V-FITC/PI (FITC Annexin V Apoptosis Detection Kit I, BD Biosciences, San Jose, CA, USA) according to the manufacturer’s instructions. The cells were also stained with rhodamine 123 (5 μg/mL, Sigma Aldrich Co.) for 15 min at 37 °C in the dark to assess the mitochondrial transmembrane potential. After the cells were washed, they were incubated in saline for 30 min in the dark at 37 °C and analyzed by flow cytometry. For all flow cytometry analyses, cellular fluorescence was measured using a BD LSRFortessa cytometer, BD FACSDiva software (BD Biosciences) and FlowJo software 10 (FlowJo LLC; Ashland, OR, USA). A minimum of 10,000 events were obtained per sample for intracellular staining, and a minimum of 30,000 events per sample were acquired for cell surface protein staining. Doublets were removed using FSC-A vs FCS-H and SCC-A vs SCC-H. Cellular debris was excluded from the analysis.

The next test concerns MRC-5. Put plainly: Alamar Blue cytotoxicity, noncancerous cells. The class given is cell-based, human. Conditions: MRC-5, 72 h. As to the method: as §1
The next test relates to BJ. Put plainly: Alamar Blue cytotoxicity, noncancerous cells. It counts as cell-based, human. To be noted: 72 h. As for the experimental part:
as §1

In another test the test system is CAL 27. The experiment in a line: Alamar Blue cytotoxicity. It counts as cell-based, human. To be noted: CAL 27, 72 h. As to the method:
as §1

Another test has as its system THP-1. Put plainly: Alamar Blue cytotoxicity. The class given is cell-based, human. To be noted: THP-1, 72 h. As to the method: as §1
A further test has as its system K-562. The experiment in a line: Alamar Blue cytotoxicity. It counts as cell-based, human. Conditions: K-562, 72 h. As for the experimental part:
as §1

Another test concerns PANC-1. The experiment in a line: Alamar Blue cytotoxicity. It counts as cell-based, human. To be noted: PANC-1, 72 h. As to the method:
as §1

The test system of another test is A-375. The experiment in a line: Alamar Blue cytotoxicity. It counts as cell-based, human. Conditions: A-375, 72 h. As for the experimental part: as §1
For a further test, the system named is A549. The experiment in a line: Alamar Blue cytotoxicity. Conditions: A549, 72 h. The class given is cell-based, human. As to the method:
as §1

A further test has as its system HSC-3. Put plainly: Alamar Blue cytotoxicity. The class given is cell-based, human. Conditions: HSC-3, 72 h. As for the experimental part: as §1
The subject of a further test is SCC-25. The experiment in a line: Alamar Blue cytotoxicity. The class given is cell-based, human. Conditions: SCC-25, 72 h. As for the experimental part: as §1
A further test relates to Jurkat. The experiment in a line: Alamar Blue cytotoxicity. The class given is cell-based, human. To be noted: Jurkat, 72 h. As for the experimental part:
as §1

For another test, the system named is KG-1a. Put plainly: Alamar Blue cytotoxicity. Conditions: KG-1a, 72 h. The class given is cell-based, human. As to the method: as §1
The next test relates to OVCAR-3. The experiment in a line: Alamar Blue cytotoxicity. The class given is cell-based, human. To be noted: OVCAR-3, 72 h. As to the method: as §1
In another test the test system is MDA-MB-231. The experiment in a line: Alamar Blue cytotoxicity. The class given is cell-based, human. To be noted: MDA-MB-231, 72 h. As to the method:
as §1

A further test relates to SCC4. Put plainly: Alamar Blue cytotoxicity. It counts as cell-based, human. Conditions: SCC4, 72 h. As for the experimental part:
as §1

Consider `Cc1cc(=O)nc([S][Ru+])[nH]1.F[P-](F)(F)(F)(F)F.c1ccc(-c2ccccn2)nc1.c1ccc(P(c2ccccc2)c2ccccc2)cc1.c1ccc(P(c2ccccc2)c2ccccc2)cc1` [Complex 2, trans-[Ru(6m2TU)(PPh3)2(bipy)]PF6], for which the pIC50 – broadly, −log10 of the IC50, conventionally taken in molar units – in the test on B16-F10 was 5.56; with 4T1 it was 5.34; in the test on HL-60 it was 5.39; in the test with PBMC it was 4.93; in the test on MRC-5, 4.82; in the test on MRC-5 (listed as 2), 4.82. For the same compound, the pIC50 in the test with BJ is 5.11; in the test with CAL 27, 5.37; in the test on THP-1, 5.19; with K-562, 5.11; with PANC-1 it was 5.39; in the test with A-375 it was 5.70. In addition, the pIC50 with A549 is 4.98; with HSC-3, 5.26; with SCC-25, 5.44; with Jurkat, 5.31; with KG-1a, 5.42; in the test on OVCAR-3 it was 5.80 and 5.79. Moreover, the figures for the negative-log IC50 (pIC50) in the test on MDA-MB-231 and with SCC4 were 5.53 and 5.46, respectively. Further, the “apoptosis (annexin V-FITC+ cells)” value with HepG2 cells (1.5 µM) amounted to 9.1%; in the test with HepG2 cells (3 µM), 40.7%; with HepG2 cells (6 µM), 76.9%. For the same compound, in the test with HepG2 cells (HepG2, 24, 48, 72 h), the “percentage of necrotic cells” value was “no significant increase”.
